Laboratory results: ChEMBL document CHEMBL4190379 (Bioorg Med Chem Lett, 2018)

How the values were obtained:
[1] = target: T1, Bromodomain and PHD finger-containing protein 3 (Homo sapiens) (UniProt Q9ULD4); assay: Binding affinity to human BRPF3 expressed in bacterial system assessed as remaining binding level at 1 uM by BROMOscan assay relative to control
T1 sequence (whole entry): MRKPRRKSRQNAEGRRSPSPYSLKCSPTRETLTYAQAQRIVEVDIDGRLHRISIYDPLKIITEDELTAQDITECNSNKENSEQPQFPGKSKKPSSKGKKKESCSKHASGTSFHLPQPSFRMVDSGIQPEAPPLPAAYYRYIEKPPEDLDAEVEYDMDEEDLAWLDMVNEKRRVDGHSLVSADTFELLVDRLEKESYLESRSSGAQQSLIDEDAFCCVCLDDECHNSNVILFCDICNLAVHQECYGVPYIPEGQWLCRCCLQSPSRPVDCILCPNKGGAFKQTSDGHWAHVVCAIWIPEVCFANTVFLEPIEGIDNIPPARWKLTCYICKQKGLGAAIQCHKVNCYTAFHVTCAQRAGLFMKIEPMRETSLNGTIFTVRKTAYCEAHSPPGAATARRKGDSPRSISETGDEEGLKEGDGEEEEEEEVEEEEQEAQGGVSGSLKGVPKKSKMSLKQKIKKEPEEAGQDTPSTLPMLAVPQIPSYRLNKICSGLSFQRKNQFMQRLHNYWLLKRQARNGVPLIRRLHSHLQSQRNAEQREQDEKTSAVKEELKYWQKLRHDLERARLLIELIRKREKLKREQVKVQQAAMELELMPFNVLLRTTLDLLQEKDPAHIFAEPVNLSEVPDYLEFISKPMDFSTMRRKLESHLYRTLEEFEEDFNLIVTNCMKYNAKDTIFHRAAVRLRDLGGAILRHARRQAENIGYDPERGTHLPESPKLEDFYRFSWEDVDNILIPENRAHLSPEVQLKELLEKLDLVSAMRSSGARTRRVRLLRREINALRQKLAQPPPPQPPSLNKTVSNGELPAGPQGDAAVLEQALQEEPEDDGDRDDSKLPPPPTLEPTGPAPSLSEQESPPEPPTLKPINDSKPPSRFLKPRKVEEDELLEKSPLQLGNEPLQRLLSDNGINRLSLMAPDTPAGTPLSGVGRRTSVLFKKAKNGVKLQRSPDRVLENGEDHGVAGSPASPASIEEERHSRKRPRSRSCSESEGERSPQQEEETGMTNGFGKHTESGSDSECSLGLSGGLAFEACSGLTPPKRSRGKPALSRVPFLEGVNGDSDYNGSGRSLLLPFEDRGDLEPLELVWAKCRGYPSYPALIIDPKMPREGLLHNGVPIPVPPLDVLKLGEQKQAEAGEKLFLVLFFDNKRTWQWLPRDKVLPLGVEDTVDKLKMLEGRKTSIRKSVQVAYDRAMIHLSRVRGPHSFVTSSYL

[2] = target: T2, Bromodomain-containing protein 1 (Homo sapiens) (UniProt O95696); assay: Binding affinity to human BRD1 expressed in bacterial system assessed as remaining binding level at 1 uM by BROMOscan assay relative to control
T2 sequence (whole entry): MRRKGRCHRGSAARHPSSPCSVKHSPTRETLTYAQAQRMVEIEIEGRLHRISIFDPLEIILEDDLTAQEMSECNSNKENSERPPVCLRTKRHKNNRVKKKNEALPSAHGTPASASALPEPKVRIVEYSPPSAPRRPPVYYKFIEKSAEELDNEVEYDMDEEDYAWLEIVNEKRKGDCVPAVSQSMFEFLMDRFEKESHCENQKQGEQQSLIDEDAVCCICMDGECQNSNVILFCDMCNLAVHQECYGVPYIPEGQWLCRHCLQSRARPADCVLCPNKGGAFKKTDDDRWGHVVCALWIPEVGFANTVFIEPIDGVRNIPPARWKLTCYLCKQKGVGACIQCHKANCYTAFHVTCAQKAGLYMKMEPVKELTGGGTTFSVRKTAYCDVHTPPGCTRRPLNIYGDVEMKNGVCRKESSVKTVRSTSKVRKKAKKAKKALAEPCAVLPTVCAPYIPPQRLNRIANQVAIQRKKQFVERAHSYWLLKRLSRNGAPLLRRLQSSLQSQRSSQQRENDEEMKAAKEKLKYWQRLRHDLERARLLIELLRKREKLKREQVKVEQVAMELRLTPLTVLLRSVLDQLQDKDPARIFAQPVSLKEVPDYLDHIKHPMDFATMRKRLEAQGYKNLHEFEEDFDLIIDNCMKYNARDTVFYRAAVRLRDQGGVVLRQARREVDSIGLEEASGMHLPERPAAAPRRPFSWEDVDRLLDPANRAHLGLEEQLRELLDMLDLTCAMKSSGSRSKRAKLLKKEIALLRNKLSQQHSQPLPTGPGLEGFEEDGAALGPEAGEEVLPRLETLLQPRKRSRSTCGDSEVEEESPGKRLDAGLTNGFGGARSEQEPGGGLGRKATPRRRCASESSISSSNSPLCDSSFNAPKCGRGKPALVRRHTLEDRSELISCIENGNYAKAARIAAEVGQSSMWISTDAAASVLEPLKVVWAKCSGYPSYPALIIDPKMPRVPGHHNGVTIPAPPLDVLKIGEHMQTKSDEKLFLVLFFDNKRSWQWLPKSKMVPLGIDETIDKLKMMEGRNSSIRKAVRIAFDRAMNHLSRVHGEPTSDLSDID

[3] = target: Histone acetyltransferase KAT2A (Homo sapiens) (UniProt Q92830); assay: Binding affinity to human GCN5L2 expressed in bacterial system assessed as remaining binding level at 1 uM by BROMOscan assay relative to control
Sequence of Histone acetyltransferase KAT2A (Homo sapiens) (Q92830 2-837 limits assumed): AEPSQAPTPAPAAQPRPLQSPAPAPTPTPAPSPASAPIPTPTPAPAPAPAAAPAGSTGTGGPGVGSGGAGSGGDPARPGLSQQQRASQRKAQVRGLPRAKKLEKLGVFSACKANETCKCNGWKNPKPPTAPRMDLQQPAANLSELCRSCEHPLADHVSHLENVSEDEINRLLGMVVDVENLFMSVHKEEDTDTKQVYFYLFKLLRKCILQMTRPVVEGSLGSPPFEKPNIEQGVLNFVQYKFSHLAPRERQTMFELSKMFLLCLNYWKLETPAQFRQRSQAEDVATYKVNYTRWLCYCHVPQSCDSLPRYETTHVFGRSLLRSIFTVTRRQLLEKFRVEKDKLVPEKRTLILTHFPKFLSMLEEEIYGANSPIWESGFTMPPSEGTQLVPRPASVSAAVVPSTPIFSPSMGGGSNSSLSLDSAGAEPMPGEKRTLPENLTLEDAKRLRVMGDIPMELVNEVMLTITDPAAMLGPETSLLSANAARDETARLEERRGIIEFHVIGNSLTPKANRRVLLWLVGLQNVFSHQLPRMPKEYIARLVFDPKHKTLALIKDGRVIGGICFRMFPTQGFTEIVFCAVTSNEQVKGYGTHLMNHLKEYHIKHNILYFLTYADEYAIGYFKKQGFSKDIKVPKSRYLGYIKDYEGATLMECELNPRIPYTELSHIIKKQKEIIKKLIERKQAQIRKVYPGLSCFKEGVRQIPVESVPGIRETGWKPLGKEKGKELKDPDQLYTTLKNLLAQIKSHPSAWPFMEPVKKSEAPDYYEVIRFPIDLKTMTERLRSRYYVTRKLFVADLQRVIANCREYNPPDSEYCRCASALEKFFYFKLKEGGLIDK

[4] = target: Histone acetyltransferase p300 (Homo sapiens) (UniProt Q09472); assay: Binding affinity to human EP300 expressed in bacterial system assessed as remaining binding level at 1 uM by BROMOscan assay relative to control
Sequence of Histone acetyltransferase p300 (Homo sapiens) (Q09472 whole entry, the tested form may be a part): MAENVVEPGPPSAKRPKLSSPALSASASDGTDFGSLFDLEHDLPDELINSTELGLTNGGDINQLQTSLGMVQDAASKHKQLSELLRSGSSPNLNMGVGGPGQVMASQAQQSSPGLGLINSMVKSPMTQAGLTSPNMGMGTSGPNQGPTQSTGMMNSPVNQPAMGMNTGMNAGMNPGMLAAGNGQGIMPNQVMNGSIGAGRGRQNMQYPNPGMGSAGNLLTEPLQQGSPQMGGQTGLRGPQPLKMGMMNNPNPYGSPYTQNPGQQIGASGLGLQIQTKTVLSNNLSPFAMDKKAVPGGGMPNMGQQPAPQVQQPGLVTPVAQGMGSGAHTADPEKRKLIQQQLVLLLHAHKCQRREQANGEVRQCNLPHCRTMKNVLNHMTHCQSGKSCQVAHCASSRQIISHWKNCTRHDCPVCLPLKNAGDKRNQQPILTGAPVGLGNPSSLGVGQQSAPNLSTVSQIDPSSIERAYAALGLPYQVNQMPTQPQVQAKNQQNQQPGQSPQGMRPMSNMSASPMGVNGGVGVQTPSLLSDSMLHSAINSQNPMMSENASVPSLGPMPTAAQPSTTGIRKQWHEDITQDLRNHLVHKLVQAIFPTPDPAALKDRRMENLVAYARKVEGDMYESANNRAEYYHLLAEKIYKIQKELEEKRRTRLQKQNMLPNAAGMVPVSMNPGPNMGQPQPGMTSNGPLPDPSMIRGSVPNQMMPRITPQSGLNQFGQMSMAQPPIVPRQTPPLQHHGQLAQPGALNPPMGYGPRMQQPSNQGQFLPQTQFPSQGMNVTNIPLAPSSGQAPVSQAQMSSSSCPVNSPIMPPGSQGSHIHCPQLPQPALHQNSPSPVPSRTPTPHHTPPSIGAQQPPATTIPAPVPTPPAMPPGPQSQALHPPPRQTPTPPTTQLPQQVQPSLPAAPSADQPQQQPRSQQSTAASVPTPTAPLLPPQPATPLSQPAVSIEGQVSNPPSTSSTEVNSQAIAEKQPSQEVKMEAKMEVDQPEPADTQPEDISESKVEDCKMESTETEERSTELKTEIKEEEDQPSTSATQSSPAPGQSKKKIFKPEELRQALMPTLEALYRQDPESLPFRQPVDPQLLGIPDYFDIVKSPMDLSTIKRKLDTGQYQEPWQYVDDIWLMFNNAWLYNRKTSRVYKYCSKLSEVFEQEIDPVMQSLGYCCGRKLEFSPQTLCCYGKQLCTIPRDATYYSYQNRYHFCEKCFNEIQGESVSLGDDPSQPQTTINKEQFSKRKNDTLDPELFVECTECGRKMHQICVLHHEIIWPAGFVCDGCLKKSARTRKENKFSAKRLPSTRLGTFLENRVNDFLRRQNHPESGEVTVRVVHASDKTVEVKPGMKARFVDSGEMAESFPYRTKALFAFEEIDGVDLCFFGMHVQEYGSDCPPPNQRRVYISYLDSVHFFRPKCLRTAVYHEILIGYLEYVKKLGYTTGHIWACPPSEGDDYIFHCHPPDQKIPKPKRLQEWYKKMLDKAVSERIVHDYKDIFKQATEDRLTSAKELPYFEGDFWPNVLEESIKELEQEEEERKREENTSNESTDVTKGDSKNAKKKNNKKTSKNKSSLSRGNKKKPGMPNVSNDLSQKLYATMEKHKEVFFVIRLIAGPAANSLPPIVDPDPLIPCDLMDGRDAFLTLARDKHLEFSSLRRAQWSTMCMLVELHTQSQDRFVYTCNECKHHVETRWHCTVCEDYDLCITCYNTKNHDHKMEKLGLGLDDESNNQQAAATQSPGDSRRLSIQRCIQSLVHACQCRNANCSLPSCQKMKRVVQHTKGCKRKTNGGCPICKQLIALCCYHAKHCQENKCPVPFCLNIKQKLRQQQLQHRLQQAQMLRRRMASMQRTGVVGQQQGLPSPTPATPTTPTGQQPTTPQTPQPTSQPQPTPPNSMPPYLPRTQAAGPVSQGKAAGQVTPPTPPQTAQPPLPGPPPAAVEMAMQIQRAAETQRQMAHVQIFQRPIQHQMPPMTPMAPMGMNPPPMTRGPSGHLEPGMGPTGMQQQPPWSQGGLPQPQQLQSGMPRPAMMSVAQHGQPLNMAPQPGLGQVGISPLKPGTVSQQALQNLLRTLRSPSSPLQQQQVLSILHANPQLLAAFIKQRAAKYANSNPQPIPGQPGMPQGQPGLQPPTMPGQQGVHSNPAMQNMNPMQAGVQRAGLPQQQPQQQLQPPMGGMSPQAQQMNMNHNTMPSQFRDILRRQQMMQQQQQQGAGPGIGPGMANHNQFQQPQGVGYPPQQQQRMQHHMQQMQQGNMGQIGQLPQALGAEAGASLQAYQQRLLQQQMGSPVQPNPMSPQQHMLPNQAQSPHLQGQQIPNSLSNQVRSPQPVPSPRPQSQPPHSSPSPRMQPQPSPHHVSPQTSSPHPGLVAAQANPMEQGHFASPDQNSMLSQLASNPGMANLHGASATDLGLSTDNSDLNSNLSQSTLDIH

[5] = target: Bromodomain-containing protein 4 (Homo sapiens, UniProt O60885); assay: Binding affinity to BRD4 bromodomain 1 (K57 to E168 amino acids) (unknown origin) using Alexa647-labeled BET-inhibitor as fluorescent probe by bromodomain TR-FRET binding assay
[6] = target: Protein polybromo-1 (Homo sapiens) (UniProt Q86U86); assay: Binding affinity to human PBRM1 bromodomain 2 expressed in bacterial system assessed as remaining binding level at 1 uM by BROMOscan assay relative to control
Sequence of Protein polybromo-1 (Homo sapiens) (Q86U86 whole entry): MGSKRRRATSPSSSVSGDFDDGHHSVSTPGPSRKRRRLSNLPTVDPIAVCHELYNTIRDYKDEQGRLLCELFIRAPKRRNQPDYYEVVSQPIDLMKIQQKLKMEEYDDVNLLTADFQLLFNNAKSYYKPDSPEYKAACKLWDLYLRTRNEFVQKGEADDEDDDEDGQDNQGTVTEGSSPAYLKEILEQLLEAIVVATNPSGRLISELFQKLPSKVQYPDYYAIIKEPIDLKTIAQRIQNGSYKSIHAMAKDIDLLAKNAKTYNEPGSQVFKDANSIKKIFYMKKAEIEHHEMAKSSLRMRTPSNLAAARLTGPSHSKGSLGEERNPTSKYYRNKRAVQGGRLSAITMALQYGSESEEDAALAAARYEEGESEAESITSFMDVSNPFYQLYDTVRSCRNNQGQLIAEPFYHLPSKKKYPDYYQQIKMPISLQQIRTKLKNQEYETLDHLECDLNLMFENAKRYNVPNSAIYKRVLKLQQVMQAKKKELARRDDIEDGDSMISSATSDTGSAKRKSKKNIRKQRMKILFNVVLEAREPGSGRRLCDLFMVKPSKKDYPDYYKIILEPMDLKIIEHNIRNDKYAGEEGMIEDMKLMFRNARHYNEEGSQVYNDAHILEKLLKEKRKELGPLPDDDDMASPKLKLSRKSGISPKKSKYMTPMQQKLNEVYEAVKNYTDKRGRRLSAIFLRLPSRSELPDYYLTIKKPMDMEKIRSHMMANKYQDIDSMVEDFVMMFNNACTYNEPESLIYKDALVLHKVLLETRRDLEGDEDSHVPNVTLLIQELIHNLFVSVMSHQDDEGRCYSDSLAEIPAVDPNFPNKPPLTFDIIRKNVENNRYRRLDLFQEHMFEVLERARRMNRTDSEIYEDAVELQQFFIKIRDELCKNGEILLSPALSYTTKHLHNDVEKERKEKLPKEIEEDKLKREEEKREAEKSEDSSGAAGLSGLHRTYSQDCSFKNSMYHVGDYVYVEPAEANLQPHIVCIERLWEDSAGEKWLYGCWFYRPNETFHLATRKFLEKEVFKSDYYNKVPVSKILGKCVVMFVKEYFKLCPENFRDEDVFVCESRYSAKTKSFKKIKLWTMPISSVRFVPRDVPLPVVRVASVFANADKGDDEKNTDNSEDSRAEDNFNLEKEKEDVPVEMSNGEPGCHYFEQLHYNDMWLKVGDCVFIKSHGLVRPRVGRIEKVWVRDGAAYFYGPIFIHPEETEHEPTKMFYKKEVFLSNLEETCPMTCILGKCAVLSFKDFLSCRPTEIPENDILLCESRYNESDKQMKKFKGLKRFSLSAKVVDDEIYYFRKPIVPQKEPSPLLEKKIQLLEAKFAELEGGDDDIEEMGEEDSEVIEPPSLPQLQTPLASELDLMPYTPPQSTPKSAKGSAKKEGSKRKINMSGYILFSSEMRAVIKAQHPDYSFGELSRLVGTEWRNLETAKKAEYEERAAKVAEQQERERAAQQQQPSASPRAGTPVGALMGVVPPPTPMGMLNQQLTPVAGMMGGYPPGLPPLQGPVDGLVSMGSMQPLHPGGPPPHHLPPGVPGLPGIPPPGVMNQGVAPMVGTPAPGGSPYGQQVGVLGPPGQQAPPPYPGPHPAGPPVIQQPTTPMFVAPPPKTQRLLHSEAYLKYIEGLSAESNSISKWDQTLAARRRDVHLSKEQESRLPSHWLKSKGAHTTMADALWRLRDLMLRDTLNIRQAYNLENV

Activity [1] [%] | Activity [2] [%] | Activity [3] [%] | Activity [4] [%] | Ki [5] [nM] | Activity [6] [%] | SMILES
100 | 98 | 87 | 42 | 1.2 | 92 | Cn1cc2c3c(c[nH]c(=O)c31)-c1cc(CS(C)(=O)=O)ccc1N(c1ccc(F)cc1)C2
94 | 84 | 84 | 0 | 1.2 | 81 | Cn1cc2c3c(c[nH]c3c1=O)CN(c1ccccn1)c1ccc(CS(C)(=O)=O)cc1-2
88 | 87 | 97 | 0 | 2.6 | 79 | Cn1cc2c3c(c[nH]c3c1=O)CN(c1ccc(F)cc1F)c1ccc(CS(C)(=O)=O)cc1-2
